Like-named read-outs stand apart in the source and are kept apart here.
Legend:
H3K36me3 in A549 cells = test: In-Cell Western (ICW) assay of SETD2 inhibitors (A549 assay); type: cell-based, human
Description: In-Cell Western (ICW) Assay of SETD2 Inhibitors (A549 Assay)
Representative Compounds of the Disclosure were tested in the A549 assay according the following protocol.
1. Reagents and Consumables:
Prepare plates with compounds. Seed A549 cells to the plates with compounds, 4,000 cells/well, 50 μl/well. Put the plates at room temperature on a non-vibrating surface for 20 minutes before placing in the incubator. Incubate the plate at 37° C. incubator with CO2 for 3 days. Remove plate from incubator and bring to room temperature. Blot media out of the plate and add 50 μL of ice cold 100% methanol. Incubate 30 minutes at room temperature. Remove methanol by aspiration. Wash 3× with PBST. Add 50 μL of Blocking Buffer+0.1% Tween 20. Incubate 1 hour. Remove Blocking Buffer, wash 3× with PBST. Add 20 μL of H3K36me3 (1:1000 dilution). […] Incubate overnight at 4° C. Wash plate 5× with PBS-T. Add 20 μL of DRAQ5 (1:1000) and IRDye 800CW Goat anti-Rabbit IgG (1:500). Incubate for 1 hour in the dark. Wash plate 5× with PBS-T. Wash plate 3× with water. Dry by blotting on paper towel, then centrifuge plate upside down on a thin layer of paper towels for 1 minute at 1000 rpm to remove excess reagent. Leave plate uncovered for ˜10 minutes out of direct light before reading. Read on Licor instrument.
4. Licor Instrument Settings:
Preset: Plate; Resolution: 84 μm; Quality: low; Focus offset: 4.0; 700 channel intensity: 2; and 800 channel intensity: 3.

SETD2(1434-1711) = biological target: T1, SETD2(1434-1711) (Homo sapiens, UniProt Q9BYW2); test: SETD2 (1434-1711) assay; type: biochemical; conditions: read-out: SETD2 (1434-1711)
T1 construct: SETD2 (1434-1711) Assay; catalogue N/A
T1 sequence (Q9BYW2 1434-1711): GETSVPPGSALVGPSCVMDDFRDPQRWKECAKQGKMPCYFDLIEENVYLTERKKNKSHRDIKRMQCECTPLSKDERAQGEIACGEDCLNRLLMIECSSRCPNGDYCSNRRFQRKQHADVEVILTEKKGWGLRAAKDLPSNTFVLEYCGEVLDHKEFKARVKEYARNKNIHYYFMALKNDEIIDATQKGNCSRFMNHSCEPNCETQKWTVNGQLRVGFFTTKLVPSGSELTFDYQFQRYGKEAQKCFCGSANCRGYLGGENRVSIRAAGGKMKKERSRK

[1] = Homo sapiens, A549 cells, read-out: SETD2 A549
[2] = Homo sapiens, A549, read-out: SETD2 A549
[3] = A549 cells, read-out: SETD2 A549

Row | Compound | IC50 (SETD2(1434-1711)) | IC50 (H3K36me3 in A549 cells; [3]) | also measured
1 | Cc1ccc(F)c2cc(C(=O)Nc3cccc(-c4nnco4)c3)[nH]c12 [Cpd. No. 60, N-(3-(1,3,4-oxadiazol-2-yl)phenyl)-4-fluoro-7-methyl-1H-indole-2-carboxamide] | 30 nM | – | IC50 (H3K36me3 in A549 cells; [1]): 100 nM
2 | Cc1ccc(F)c2cc(C(=O)Nc3cc(F)cc4cnccc34)[nH]c12 [Cpd. No. 82, 4-fluoro-N-(7-fluoroisoquinolin-5-yl)-7-methyl-1H-indole-2-carboxamide] | 40 nM | – | IC50 (H3K36me3 in A549 cells; [1]): 200 nM
3 | Cc1cccnc1C(Cc1cnn(C)c1)NC(=O)c1cc2c(F)ccc(C)c2[nH]1 (stereo not drawn) [Cpd. No. 85, 4-fluoro-7-methyl-N-(2-(1-methyl-1H-pyrazol-4-yl)-1-(3-methylpyridin-2-yl)ethyl)-1H-indole-2-carboxamide] | 40 nM | – | IC50 (H3K36me3 in A549 cells; [1]): 200 nM
4 | Cc1cc(Cn2ccnc2)cnc1C(NC(=O)c1cc2c(F)ccc(C)c2[nH]1)C1CC1 (stereo not drawn) [Cpd. No. 161, N-((5-((1H-imidazol-1-yl)methyl)-3-methylpyridin-2-yl)(cyclopropyl)methyl)-4-fluoro-7-methyl-1H-indole-2-carboxamide] | 30 nM | – | IC50 (H3K36me3 in A549 cells; [1]): 300 nM
5 | Cc1ccc(F)c2cc(C(=O)Nc3cccc4c3cnn4[C@H]3CC[C@H](N(C)C)CC3)[nH]c12 [Cpd. No. 213, N-(1-((1r,4r)-4-(dimethylamino)cyclohexyl)-1H-indazol-4-yl)-4-fluoro-7-methyl-1H-indole-2-carboxamide] | 7 nM | – | IC50 (H3K36me3 in A549 cells; [1]): 500 nM
6 | Cc1ccc(F)c2cc(C(=O)Nc3ccnc(N4CCN(C)CC4)c3)[nH]c12 [Cpd. No. 340, 4-fluoro-7-methyl-N-(2-(4-methylpiperazin-1-yl)pyridin-4-yl)-1H-indole-2-carboxamide] | 200 nM | – | IC50 (H3K36me3 in A549 cells; [2]): 1700 nM
7 | Cc1ccc(F)c2cc(C(=O)NCC3(c4ccccc4N4CCN(C)CC4)CC3)[nH]c12 [Cpd. No. 392, 4-fluoro-7-methyl-N-((1-(2-(4-methylpiperazin-1-yl)phenyl)cyclopropyl)methyl)-1H-indole-2-carboxamide] | 60 nM | – | IC50 (H3K36me3 in A549 cells; [1]): 2000 nM
8 | Cc1ccc(F)c2cc(C(=O)NC(c3nccc4ccccc34)C3CC3)[nH]c12 (stereo not drawn) [Cpd. No. 507, N-(cyclopropyl(isoquinolin-1-yl)methyl)-4-fluoro-7-methyl-1H-indole-2-carboxamide] | 1100 nM | – | IC50 (H3K36me3 in A549 cells; [1]): 15100 nM
9 | Cc1ccc(F)c2cc(C(=O)Nc3cc(F)cc(N4CCC(N5CCN6C(=O)N(C)CC6C5)C4)c3)[nH]c12 (stereo not drawn) [compound 2] | 5 nM | 30 nM | –
10 | Cc1ccc(F)c2cc(C(=O)Nc3cc(F)cc(N4CCC(N(C)C)C4=O)c3)[nH]c12 (stereo not drawn) [compound 3] | 4 nM | 30 nM | –
11 | Cc1ccc(F)c2cc(C(=O)Nc3cc(F)cc(N4CCC(N5CCN(CC(=O)N(C)C)CC5)C4)c3)[nH]c12 (stereo not drawn) [compound 4] | 6 nM | 30 nM | –
12 | Cc1cccnc1C(NC(=O)c1cc2c(F)ccc(C)c2[nH]1)C1CC1 (stereo not drawn) [compound 462] | – | – | IC50 (H3K36me3 in A549 cells; [2]): 6300 nM
13 | Cc1cccnc1[C@H](NC(=O)c1cc2cccc(C)c2[nH]1)C1CC1 [compound 463] | – | – | IC50 (H3K36me3 in A549 cells; [2]): 6400 nM
14 | Cc1cccnc1C(NC(=O)c1cc2cccc(C)c2[nH]1)C1CC1 (stereo not drawn) [compound 475] | – | – | IC50 (H3K36me3 in A549 cells; [2]): 8900 nM
15 | Cc1cccc2cc(C(=O)Nc3ccccc3)[nH]c12 [compound 479] | – | – | IC50 (H3K36me3 in A549 cells; [2]): 9500 nM
16 | CCc1ccc(C)c2[nH]c(C(=O)NC(CCC(=O)N3CCOCC3)c3ncccc3C)cc12 (stereo not drawn) [compound 485] | – | – | IC50 (H3K36me3 in A549 cells; [1]): 10800 nM
17 | Cc1cccnc1C(NC(=O)c1cc2cc(F)cc(C)c2[nH]1)C1CC1 (stereo not drawn) [compound 497] | – | – | IC50 (H3K36me3 in A549 cells; [2]): 13800 nM
18 | Cc1nccnc1C(NC(=O)c1cc2cccc(C)c2[nH]1)C1CC1 (stereo not drawn) [compound 518] | – | – | IC50 (H3K36me3 in A549 cells; [1]): 18900 nM
19 | Cc1cccc2cc(C(=O)N[C@H]3CC[C@@H](NC(=O)CCN)CC3)[nH]c12 [compound 592] | – | – | IC50 (H3K36me3 in A549 cells; [2]): > 25000 nM
20 | CC(=O)N(C)[C@H]1CCN([C@H]2CCC[C@@H](NC(=O)c3cc4c(F)ccc(C)c4[nH]3)C2)C1 [compound 841] | – | – | IC50 (H3K36me3 in A549 cells; [2]): 100 nM
21 | CC(=O)N(C)[C@H]1CCN([C@@H]2CCC[C@@H](NC(=O)c3cc4c(F)ccc(C)c4[nH]3)C2)C1 [compound 842] | – | – | IC50 (H3K36me3 in A549 cells; [2]): > 2000 nM
22 | Cc1ccc(F)c2cc(C(=O)N[C@@H]3CCC[C@@H](c4ccncc4)C3)[nH]c12 [compound 912] | – | – | IC50 (H3K36me3 in A549 cells; [2]): > 2000 nM
23 | Cc1ccc(F)c2cc(C(=O)N[C@@H]3CCC[C@H](c4ccncc4)C3)[nH]c12 [compound 913] | – | – | IC50 (H3K36me3 in A549 cells; [2]): > 2000 nM
24 | Cc1ccc(F)c2cc(C(=O)N[C@H]3CCC[C@@H](c4ccncc4)C3)[nH]c12 [compound 914] | – | – | IC50 (H3K36me3 in A549 cells; [2]): 300 nM
25 | Cc1ccc(F)c2cc(C(=O)N[C@H]3CCC[C@H](c4ccncc4)C3)[nH]c12 [compound 915] | – | – | IC50 (H3K36me3 in A549 cells; [2]): > 2000 nM

Further lines, with some results ahead:

Row | IC50 (SETD2(1434-1711)) | IC50 (H3K36me3 in A549 cells; [3]) | Compound | also measured
26 | 8 nM | 40 nM | CC(=O)N1CCC2(CC1)CCN(c1cc(F)cc(NC(=O)c3cc4c(F)ccc(C)c4[nH]3)c1)C2 [compound 5] | –
27 | 6 nM | 40 nM | Cc1ccc(F)c2cc(C(=O)Nc3cc(F)cc(N4CCC(N5CCN(CC(N)=O)CC5)C4)c3)[nH]c12 (stereo not drawn) [compound 6] | –
28 | 8 nM | 40 nM | CC(=O)N1CCN(C2CCN(c3cc(F)cc(NC(=O)c4cc5c(F)ccc(C)c5[nH]4)c3)C2)CC1 (stereo not drawn) [compound 9] | –
29 | 10 nM | 40 nM | Cc1ccc(F)c2cc(C(=O)Nc3cc(F)cc(N4CCN(C5CC5)C(=O)C4)c3)[nH]c12 [compound 10] | –
30 | 10 nM | 50 nM | COCC(=O)N1CCN(c2cc(F)cc(NC(=O)c3cc4c(F)ccc(C)c4[nH]3)c2)CC1 [compound 12] | –
31 | 10 nM | 50 nM | CC(=O)N1CCC2C1CCN2c1cc(F)cc(NC(=O)c2cc3c(F)ccc(C)c3[nH]2)c1 (stereo not drawn) [compound 13] | –
32 | 7 nM | 50 nM | CC(=O)N1CCC2CN(c3cc(F)cc(NC(=O)c4cc5c(F)ccc(C)c5[nH]4)c3)CC21 (stereo not drawn) [compound 14] | –
33 | 10 nM | 50 nM | Cc1ccc(F)c2cc(C(=O)Nc3cc(F)cc(N4CCC(N5CCOC(CO)C5)C4)c3)[nH]c12 (stereo not drawn) [compound 16] | –
34 | 9 nM | 50 nM | Cc1ccc(F)c2cc(C(=O)Nc3cc(F)cc(N4CCC(N5CCN(C)C(=O)C5)C4)c3)[nH]c12 (stereo not drawn) [compound 17] | –
35 | – | 24600 nM | Cc1cccc2cc(C(=O)NCc3ccccc3N3CCCC3)[nH]c12 [compound 528] | –
36 | – | > 25000 nM | Cc1cccnc1C(NC(=O)c1cc2nccc(C)c2[nH]1)C1CC1 (stereo not drawn) [compound 599] | –
37 | – | > 25000 nM | Cc1cccnc1[C@@H](NC(=O)c1cc2cccc(C)c2[nH]1)C1CC1 [compound 613] | –
38 | – | > 2000 nM | CC(=O)N(C)[C@@H]1CCN([C@@H]2CCC[C@@H](NC(=O)c3cc4c(F)ccc(C)c4[nH]3)C2)C1 [compound 849] | –
39 | – | > 2000 nM | Cc1ccc(F)c2cc(C(=O)N[C@@H]3CCC[C@@H](N4CCN(S(C)(=O)=O)CC4)C3)[nH]c12 [compound 851] | –
40 | – | 20 nM | Cc1ccc(F)c2cc(C(=O)NC3CCCC(N4CCN5C(=O)CCC5C4)C3)[nH]c12 (stereo not drawn) [compound 863] | –
41 | – | 1200 nM | Cc1ccc(F)c2cc(C(=O)N[C@@H]3CCC[C@@H](N4CCN5C(=O)CCC5C4)C3)[nH]c12 (stereo partly drawn) [compound 864] | –
42 | – | 100 nM | Cc1ccc(F)c2cc(C(=O)NC3CCCC(N4CCN5C(=O)CCC5C4)C3)[nH]c12 (stereo not drawn) [compound 920] | –
43 | – | 1000 nM | Cc1ccc(F)c2cc(C(=O)N[C@@H]3CCC[C@@H](N4CCN5C(=O)CC[C@@H]5C4)C3)[nH]c12 [compound 921] | –
44 | – | 10 nM | Cc1ccc(F)c2cc(C(=O)NC3CCCC(N4CCN5C(=O)CCC5C4)C3)[nH]c12 (stereo not drawn) [compound 922] | –
45 | – | > 2000 nM | Cc1ccc(F)c2cc(C(=O)NC3CCCC(c4nnc(CN(C)C)o4)C3)[nH]c12 (stereo not drawn) [compound 954] | –
46 | – | > 25000 nM | Cc1ccc(F)c2cc(C(=O)Nc3ncc(C4CCN(C)CC4)n3C)[nH]c12 [compound 1159] | –
47 | – | > 2000 nM | CC(=O)N1CCC2CN(C3CCCC(NC(=O)c4cc5c(F)ccc(C)c5[nH]4)C3)CC21 (stereo not drawn) [compound 1181] | –
48 | – | > 2000 nM | CC(=O)N1CCC2CN(C3CCCC(NC(=O)c4cc5c(F)ccc(C)c5[nH]4)C3)CC21 (stereo not drawn) [compound 1183] | –
49 | – | 5 nM | CC(=O)N1CCC2C1CCN2C1CCCC(NC(=O)c2cc3c(F)ccc(C)c3[nH]2)C1 (stereo not drawn) [compound 1184] | –
50 | – | 70 nM | CC(=O)N1CCC2C1CCN2C1CCCC(NC(=O)c2cc3c(F)ccc(C)c3[nH]2)C1 (stereo not drawn) [compound 1185] | –
51 | – | > 2000 nM | CC(=O)N1CCC2C1CCN2C1CCCC(NC(=O)c2cc3c(F)ccc(C)c3[nH]2)C1 (stereo not drawn) [compound 1186] | –
52 | – | > 2000 nM | CC(=O)N1CCC2C1CCN2C1CCCC(NC(=O)c2cc3c(F)ccc(C)c3[nH]2)C1 (stereo not drawn) [compound 1187] | –

Source: patent US12116358B2, “Substituted indoles and methods of use thereof” (EPIZYME, INC., priority 2018, dated 2024)
